From PubChem BioAssay AID2060493 (Molecular Pharmacology Branch, DTP, NCI, 2025)

System: 616215-338-R-J1-PDC tumor spheroids, viability
Experiment: Anticancer human tumor 616215-338-R-J1-PDC patient-derived colon adenocarcinoma cell line growth inhibition [GQUAD]
Conditions: spheroids with HUVEC and MSC; for IC50: curve of first compound; for viability, T/C: stronger effect = lower value
Source text: DNA G-quadruplex Stabilizer Agents in Combinations in Complex Spheroids
A high-throughput screen of multi-cell type tumor spheroids was designed to identify active combinations of DNA G-quadruplex stabilizer agents and targeted small molecules. Complex spheroids include a stromal component modeled by human endothelial cells (HUVEC) and fibroblasts modeled by human mesenchymal stem cells (MSCs). The concentration ranges selected for each drug and investigational agent were based upon clinically achievable concentrations if the clinical Cmax of the agent was known.
Compounds. The drugs and investigational agents: pidnarulex (CX-5461; NSC782164), APTO-253 (NSC789042), BRACO-19 (NSC847499), peposertib (NSC802822), ceralasertib (NSC780249), elimusertib (NSC800525), camonsertib (NSC841442), AZD-1390 (NSC803789), olaparib (NSC753686), talazoparib (NSC767125), ART-558 (NSC835418), sotorasib (NSC818433), MRTX-1133 (NSC836407), SN-38 (NSC673596), topotecan (NSC609699), etoposide (NSC141540), doxorubicin (NSC123127), gemcitabine (NSC613327), 5-fluorouracil (NSC19893), paclitaxel (NSC125973), vemurafenib (NSC761431), panobinostat (NSC761190), R-306465 (JNJ-16241199; NSC773264), adavosertib (NSC754352), TP-3654 (NSC805149), carboplatin (NSC241240), KSQ-4279 (NSC840948), and staurosporine (NSC755774) were obtained from the National Cancer Institute (NCI) Developmental Therapeutics Program Chemical Repository (34). The FDA-approved anticancer drug set is available from the NCI Developmental Therapeutics Program. […] The stock solutions were prepared in dimethyl sulfoxide (DMSO, Sigma-Aldrich, St. Louis, MO, cat. D2650) at 800-fold the tested concentration and stored at -70 degrees C prior to their use. All drugs and investigational agents were tested over a range starting from a high concentration at or near the clinical Cmax and decreasing in half-log increments. If the clinical Cmax for an agent had not been determined, the highest concentration tested was 10 microM.
2.3 Cell Culture. All cells were maintained in an incubator at 37 degrees C and 5% CO2 with 95% humidity. The PDC lines were cultured according to standard operating procedures established by the NCI PDMR. All PDCs were thawed and cultured in Matrigel-coated flasks prepared with a working solution of 1X Ham's F-12 nutrient mix, without supplementation (Invitrogen, cat. 11765054), 100 U/mL penicillin-streptomycin (Invitrogen, cat. 15140122), and 2.5% Matrigel (Corning Inc., cat. 354248) for the first three passages. The 857933-349-R-J2-PDC line was cultured in 6C/Colon 1B media, which includes advanced DMEM/F-12 (Thermo Fisher Scientific, cat. 12634028), 10 mM HEPES (Thermo Fisher Scientific, cat. 15630080), 1X GlutaMAX supplement (Thermo Fisher Scientific, cat. 35050061), 0.1 mg/mL primocin (InvivoGen, cat. ant-pm-2), 10% defined fetal bovine serum, heat inactivated (HyClone Laboratories Inc., cat. SH30070.03HI), 50% L-WRN conditioned media (ATCC, cat. CRL-3276), 1.25 mM N-Acetyl-L-cysteine (Sigma-Aldrich, cat. A9165), 10 mM nicotinamide (Sigma-Aldrich, cat. N0636), 1X B-27 supplement (Thermo Fisher Scientific, cat. 17504044), 1X N-2 supplement (Thermo Fisher Scientific, cat. 17502048), 10 microM Y-27632 dihydrochloride (Tocris Bioscience, cat. 1254), and 50 ng/mL human EGF recombinant protein (Thermo Fisher Scientific, cat. PHG0311). The 485176-168-R4-J1-PDC line was cultured in Panc media, which includes all 6C/Colon 1B media components plus 100 ng/mL human FGF-10 (Thermo Fisher Scientific, cat. 100-26), 500 nM SB-431542 (Selleckchem, cat. S1067), and gastrin (Tocris, cat. 3006).
[…]
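Also: spheroids exposed to agents for 7 days before readout.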
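For viability, T/C in this document: percent viability relative to DMSO vehicle control wells taken as 100%.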

SMILES: CC[C@@]1(O)C(=O)OCc2c1cc1n(c2=O)Cc2cc3c(CN(C)C)c(O)ccc3nc2-1 + Cc1[nH]c2ccc(F)cc2c1-c1nc2c3cccnc3c3ncccc3c2[nH]1
- IC50 (second compound 0.0316 µM): 302 nM
- IC50 (second compound 0.1 µM): > 316 nM
- IC50 (second compound 0.316 µM): 232 nM
- IC50 (second compound 1 µM): > 316 nM
- IC50 (second compound 3.16 µM): 262 nM
- IC50 (second compound 10 µM): 186 nM
- viability, T/C (second compound 0.0316 µM, first compound 0.000999 µM): 102%
- viability, T/C (second compound 0.0316 µM, first compound 0.00316 µM): 99.7%
- viability, T/C (second compound 0.0316 µM, first compound 0.00999 µM): 103%
- viability, T/C (second compound 0.0316 µM, first compound 0.0316 µM): 99.4%
- viability, T/C (second compound 0.0316 µM, first compound 0.0999 µM): 90.5%
- viability, T/C (second compound 0.0316 µM, first compound 0.316 µM): 48.2%
- viability, T/C (second compound 0.1 µM, first compound 0.000999 µM): 105%
- viability, T/C (second compound 0.1 µM, first compound 0.00316 µM): 111%
- viability, T/C (second compound 0.1 µM, first compound 0.00999 µM): 97%
- viability, T/C (second compound 0.1 µM, first compound 0.0316 µM): 101%
- viability, T/C (second compound 0.1 µM, first compound 0.0999 µM): 89.5%
- viability, T/C (second compound 0.1 µM, first compound 0.316 µM): 55.2%
- viability, T/C (second compound 0.316 µM, first compound 0.000999 µM): 88.9%
- viability, T/C (second compound 0.316 µM, first compound 0.00316 µM): 109%
- viability, T/C (second compound 0.316 µM, first compound 0.00999 µM): 100%
- viability, T/C (second compound 0.316 µM, first compound 0.0316 µM): 101%
- viability, T/C (second compound 0.316 µM, first compound 0.0999 µM): 79.8%
- viability, T/C (second compound 0.316 µM, first compound 0.316 µM): 38.9%
- viability, T/C (second compound 1 µM, first compound 0.000999 µM): 93%
- viability, T/C (second compound 1 µM, first compound 0.00316 µM): 108%
- viability, T/C (second compound 1 µM, first compound 0.00999 µM): 95.3%
- viability, T/C (second compound 1 µM, first compound 0.0316 µM): 97.7%
- viability, T/C (second compound 1 µM, first compound 0.0999 µM): 90.9%
- viability, T/C (second compound 1 µM, first compound 0.316 µM): 51.1%
- viability, T/C (second compound 3.16 µM, first compound 0.000999 µM): 88.8%
- viability, T/C (second compound 3.16 µM, first compound 0.00316 µM): 89.9%
- viability, T/C (second compound 3.16 µM, first compound 0.00999 µM): 92%
- viability, T/C (second compound 3.16 µM, first compound 0.0316 µM): 95.5%
- viability, T/C (second compound 3.16 µM, first compound 0.0999 µM): 87%
- viability, T/C (second compound 3.16 µM, first compound 0.316 µM): 42.6%
- viability, T/C (second compound 10 µM, first compound 0.000999 µM): 98.2%
- viability, T/C (second compound 10 µM, first compound 0.00316 µM): 110%
- viability, T/C (second compound 10 µM, first compound 0.00999 µM): 87.8%
- viability, T/C (second compound 10 µM, first compound 0.0316 µM): 94.5%
- viability, T/C (second compound 10 µM, first compound 0.0999 µM): 71.4%
- viability, T/C (second compound 10 µM, first compound 0.316 µM): 31.4%
